What was measured:
BCL6 [1] = biological target: T1, BCL6 (Homo sapiens (Human), UniProt P41182); assay: BCL6 TR-FRET assay (BCL6-Avitag-Biotin / BCoR-Cy5 peptide); assay type: binding
Procedure, shortened: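 After 30 min room-temperature preincubation of compound titrations with 2 nM biotinylated BCL6-Avitag, 100 nM Cy5-labelled BCoR peptide plus 2 nM Eu-streptavidin were added and TR-FRET read 2 h later. HEPES pH 7.5/125 mM NaCl buffer with Triton X, glutathione (or DTT) and BSA.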

BCL6 [2] = biological target: T1, BCL6; assay: Immunofluorescence high content imaging of BCL6 degradation in T47D cells; assay type: cell-based; conditions: for Dmax: T47D
Procedure, shortened: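 Following a 3-day incubation with serially diluted bifunctional compounds (final top 0.1 or 1 μM), T47D cells were PFA-fixed and immunostained for BCL6. Nuclear BCL6 signal was captured on a high-content imager.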

Row | SMILES | EC50 (BCL6 [1]) | IC50 (BCL6 [2]) | Dmax (BCL6 [2])
1 | CC(=O)COc1cc2cc(Nc3nc(N4CCN(C)C(COc5ccc6c(c5)C(=O)N(C5CCC(=O)NC5=O)C6=O)C4)ncc3Cl)ccc2n(C)c1=O (stereo not shown) [compound 194, 5-((4-(5-chloro-4-((1-methyl-2-oxo-3-(2-oxopropoxy)-1,2-dihydroquinolin-6-yl)amino)pyrimidin-2-yl)-1-methylpiperazin-2-yl)methoxy)-2-(2,6-dioxopiperidin-3-yl)isoindoline-1,3-dione] | 10 to 50 nM | ≥ 100 nM | 50 to 70%
2 | CNC(=O)COc1cc2cc(Nc3nc(N4CC5CC4CN5CC4CCN(c5ccc6c(c5)C(=O)N(C5CCC(=O)NC5=O)C6=O)CC4)ncc3Cl)ccc2n(C)c1=O (stereo not shown) [compound 195, 2-((6-((5-chloro-2-(5-((1-(2-(2,6-dioxopiperidin-3-yl)-1,3-dioxoisoindolin-5-yl)piperidin-4-yl)methyl)-2,5-diazabicyclo [2.2.1]heptan-2-yl)pyrimidin-4-yl)amino)-1-methyl-2-oxo-1,2-dihydroquinolin-3-yl)oxy)-N-methylacetamide] | < 10 nM | 10 to 50 nM | < 50%
3 | CNC(=O)COc1cc2cc(Nc3nc(N4CCC(CN5CCN(c6ccc7c(c6)C(=O)N(C6CCC(=O)NC6=O)C7=O)CC5=O)CC4)ncc3Cl)ccc2n(C)c1=O (stereo not shown) [compound 196, 2-((6-((5-chloro-2-(4-((4-(2-(2,6-dioxopiperidin-3-yl)-1,3-dioxoisoindolin-5-yl)-2-oxopiperazin-1-yl)methyl)piperidin-1-yl)pyrimidin-4-yl)amino)-1-methyl-2-oxo-1,2-dihydroquinolin-3-yl)oxy)-N-methylacetamide] | 10 to 50 nM | 10 to 50 nM | 50 to 70%
4 | CNC(=O)COc1cc2cc(Nc3cc(N4CCC(CN5CCN(c6ccc7c(c6)C(=O)N(C6CCC(=O)NC6=O)C7=O)CC5)CC4)ncc3Cl)ccc2n(C)c1=O (stereo not shown) [compound 197, 2-((6-((5-chloro-2-(4-((4-(2-(2,6-dioxopiperidin-3-yl)-1,3-dioxoisoindolin-5-yl)piperazin-1-yl)methyl)piperidin-1-yl)pyridin-4-yl)amino)-1-methyl-2-oxo-1,2-dihydroquinolin-3-yl)oxy)-N-methylacetamide] | 50 to 100 nM | 50 to 100 nM | 50 to 70%
5 | CCNC(=O)COc1cc2cc(Nc3nc(N4CCC(CN5CCN(c6ccc7c(c6)C(=O)N(C6CCC(=O)NC6=O)C7=O)CC5)CC4)ncc3Cl)ccc2n(C)c1=O (stereo not shown) [compound 198, 2-((6-((5-chloro-2-(4-((4-(2-(2,6-dioxopiperidin-3-yl)-1,3-dioxoisoindolin-5-yl)piperazin-1-yl)methyl)piperidin-1-yl)pyrimidin-4-yl)amino)-1-methyl-2-oxo-1,2-dihydroquinolin-3-yl)oxy)-N-ethylacetamide] | > 100 nM | 50 to 100 nM | 50 to 70%
6 | CC(=O)COc1cc2cc(Nc3nc(N4CCC(CN5CC(C6CN(c7ccc8c(c7)C(=O)N(C7CCC(=O)NC7=O)C8=O)C6)C5)CC4)ncc3Cl)ccc2n(C)c1=O (stereo not shown) [compound 199, 5-(1′-((1-(5-chloro-4-((1-methyl-2-oxo-3-(2-oxopropoxy)-1,2-dihydroquinolin-6-yl)amino)pyrimidin-2-yl)piperidin-4-yl)methyl)-[3,3′-biazetidin]-1-yl)-2-(2,6-dioxopiperidin-3-yl)isoindoline-1,3-dione] | < 10 nM | 10 to 50 nM | 50 to 70%
7 | CNC(=O)COc1cc2cc(Nc3nc(N4CCC(C(C)(C)N5CCN(c6ccc7c(c6)C(=O)N(C6CCC(=O)NC6=O)C7=O)CC5)CC4)ncc3Cl)ccc2n(C)c1=O (stereo not shown) [compound 200, 2-((6-((5-chloro-2-(4-(2-(4-(2-(2,6-dioxopiperidin-3-yl)-1,3-dioxoisoindolin-5-yl)piperazin-1-yl)propan-2-yl)piperidin-1-yl)pyrimidin-4-yl)amino)-1-methyl-2-oxo-1,2-dihydroquinolin-3-yl)oxy)-N-methylacetamide] | > 100 nM | 10 to 50 nM | 50 to 70%
8 | CNC(=O)COc1cc2cc(Nc3nc(N4CCN(CC5CCN(c6ccc7c(c6)C(=O)N(C6CCC(=O)NC6=O)C7=O)CC5)C(=O)C4)ncc3Cl)ccc2n(C)c1=O (stereo not shown) [compound 201, 2-((6-((5-chloro-2-(4-((1-(2-(2,6-dioxopiperidin-3-yl)-1,3-dioxoisoindolin-5-yl)piperidin-4-yl)methyl)-3-oxopiperazin-1-yl)pyrimidin-4-yl)amino)-1-methyl-2-oxo-1,2-dihydroquinolin-3-yl)oxy)-N-methylacetamide] | 10 to 50 nM | ≥ 100 nM | ≥ 70%
9 | CNC(=O)COc1cc2cc(Nc3nc(N4CCC(CN5CCN(c6ccc7c(c6)C(=O)N(C6CCC(=O)NC6=O)C7=O)CC5)CC4)ccc3Cl)ccc2n(C)c1=O (stereo not shown) [compound 202, 2-((6-((3-chloro-6-(4-((4-(2-(2,6-dioxopiperidin-3-yl)-1,3-dioxoisoindolin-5-yl)piperazin-1-yl)methyl)piperidin-1-yl)pyridin-2-yl)amino)-1-methyl-2-oxo-1,2-dihydroquinolin-3-yl)oxy)-N-methylacetamide] | > 100 nM | 50 to 100 nM | < 50%
10 | CNC(=O)COc1cc2cc(Nc3nc(N4CCN(C(C)(C)C5CCN(c6ccc7c(c6)C(=O)N(C6CCC(=O)NC6=O)C7=O)CC5)CC4)ncc3Cl)ccc2n(C)c1=O (stereo not shown) [compound 203, 2-((6-((5-chloro-2-(4-(2-(1-(2-(2,6-dioxopiperidin-3-yl)-1,3-dioxoisoindolin-5-yl)piperidin-4-yl)propan-2-yl)piperazin-1-yl)pyrimidin-4-yl)amino)-1-methyl-2-oxo-1,2-dihydroquinolin-3-yl)oxy)-N-methylacetamide] | > 100 nM | < 10 nM | ≥ 70%
11 | CNC(=O)COc1cc2cc(Nc3nc(N4CCC(CN5CC6CC5CN6c5ccc6c(c5)C(=O)N(C5CCC(=O)NC5=O)C6=O)CC4)ncc3Cl)ccc2n(C)c1=O (stereo not shown) [compound 204, 2-((6-((5-chloro-2-(4-((5-(2-(2,6-dioxopiperidin-3-yl)-1,3-dioxoisoindolin-5-yl)-2,5-diazabicyclo [2.2.1]heptan-2-yl)methyl)piperidin-1-yl)pyrimidin-4-yl)amino)-1-methyl-2-oxo-1,2-dihydroquinolin-3-yl)oxy)-N-methylacetamide] | 10 to 50 nM | < 10 nM | < 50%
12 | Cn1cc(-c2cc3cc(Nc4nc(N5CCC(CN6CCN(c7ccc8c(c7)C(=O)N(C7CCC(=O)NC7=O)C8=O)CC6)CC5)ncc4Cl)ccc3n(C)c2=O)cn1 (stereo not shown) [compound 205, 5-(4-((1-(5-chloro-4-((1-methyl-3-(1-methyl-1H-pyrazol-4-yl)-2-oxo-1,2-dihydroquinolin-6-yl)amino)pyrimidin-2-yl)piperidin-4-yl)methyl)piperazin-1-yl)-2-(2,6-dioxopiperidin-3-yl)isoindoline-1,3-dione] | > 100 nM | ≥ 100 nM | –
13 | CC(=O)c1cc2cc(Nc3nc(N4CCC(CN5CCN(c6ccc7c(c6)C(=O)N(C6CCC(=O)NC6=O)C7=O)CC5)CC4)ncc3Cl)ccc2n(C)c1=O (stereo not shown) [compound 206, 5-(4-((1-(4-((3-acetyl-1-methyl-2-oxo-1,2-dihydroquinolin-6-yl)amino)-5-chloropyrimidin-2-yl)piperidin-4-yl)methyl)piperazin-1-yl)-2-(2,6-dioxopiperidin-3-yl)isoindoline-1,3-dione] | > 100 nM | 50 to 100 nM | –
